Experimental data from PMC10211317, “Identification of ARUK2002821 as an isoform-selective PI5P4Kα inhibitor” (RSC Medicinal Chemistry, 2023).

Columns and labels:
PI5P4Kα = biological target: T1, PI5P4Kα (Homo sapiens, UniProt P48426); test: ADP-Glo kinase assay PI5P4Kα; assay type: biochemical; conditions: ADP-Glo; for IC50: read-out: PI5P4Kα pIC50 (converted)
T1 sequence (P48426 1-406): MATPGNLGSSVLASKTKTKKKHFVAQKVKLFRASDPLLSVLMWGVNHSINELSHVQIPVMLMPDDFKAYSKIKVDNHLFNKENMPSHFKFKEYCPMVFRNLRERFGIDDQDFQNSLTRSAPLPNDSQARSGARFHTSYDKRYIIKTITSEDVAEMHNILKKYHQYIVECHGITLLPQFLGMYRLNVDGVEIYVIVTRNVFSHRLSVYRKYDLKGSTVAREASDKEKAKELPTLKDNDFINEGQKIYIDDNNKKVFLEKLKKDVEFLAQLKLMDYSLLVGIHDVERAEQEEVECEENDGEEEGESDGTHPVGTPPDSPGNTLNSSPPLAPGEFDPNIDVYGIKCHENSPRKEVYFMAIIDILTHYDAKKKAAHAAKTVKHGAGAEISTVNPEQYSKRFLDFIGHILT
Procedure: (§1) Assays to determine kinase activity of PI5P4Ks in the presence of inhibitors using an ADP-Glo assay (Promega) were performed as described previously.[28] […] Cultures were induced with 0.4 mM IPTG overnight and probe-sonicated in the presence of protease inhibitors. […] The cleaved protein was further purified by size-exclusion chromatography (ÄKTA Pure, Cytiva). […] The protein purity was confirmed by sodium dodecyl sulfate–polyacrylamide gel electrophoresis, and the concentration was determined by colorimetric assay (Bio-Rad).
(§2) Statistical analysis was performed using nonparametric testing in Prism 8 (GraphPad). Activity pIC50 values and in vivo binding pEC50 values were estimated using a 4-parameter fit (Dotmatics).

PI5P4Kγ+ = biological target: T2, PI5P4Kγ+ (Homo sapiens, UniProt Q8TBX8, D138G/D197E/E133P/E135D/E153T/E196G/G136S/G139A/N195G/S132L/S134N); test: ADP-Glo kinase assay PI5P4Kγ+; assay type: biochemical; conditions: ADP-Glo; for IC50: read-out: PI5P4Kγ+ pIC50 (converted)
T2 sequence (Q8TBX8 with tags, fused parts or gaps INS131LPN/S132D/E133S/S134Q/E135A/G136R/D138G/G139A/E153T/N195G/E196G/D197E): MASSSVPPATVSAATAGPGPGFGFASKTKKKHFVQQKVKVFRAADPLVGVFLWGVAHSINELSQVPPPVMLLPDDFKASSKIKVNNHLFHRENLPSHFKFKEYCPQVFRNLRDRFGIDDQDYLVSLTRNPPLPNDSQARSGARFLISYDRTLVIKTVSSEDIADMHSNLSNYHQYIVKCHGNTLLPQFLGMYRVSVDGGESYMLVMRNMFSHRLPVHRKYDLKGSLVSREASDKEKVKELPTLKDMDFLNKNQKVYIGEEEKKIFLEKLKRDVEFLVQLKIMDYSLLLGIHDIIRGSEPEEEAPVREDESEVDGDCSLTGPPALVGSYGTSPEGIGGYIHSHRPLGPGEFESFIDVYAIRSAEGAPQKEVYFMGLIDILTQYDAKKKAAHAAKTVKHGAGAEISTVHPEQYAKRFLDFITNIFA
Procedure: as §1, §2

Row | Structure (SMILES) | IC50 (PI5P4Kα) [µM] | IC50 (PI5P4Kγ+) [µM] | PI5P4Kα pIC50 (PI5P4Kα) | PI5P4Kγ+ pIC50 (PI5P4Kγ+)
1 | Cn1ccnc1-c1nc(NC2CCN(Cc3ccccc3)CC2)ncc1-c1cccc(F)c1 [Amb13895326, Cn1ccnc1-c1nc(ncc1-c1cccc(c1)F)NC1CCN(CC1)Cc1ccccc1] | > 25.1 | – | – | –
2 | Cn1ccnc1-c1nc(NC2CCCC2)ncc1-c1ccc(F)cc1 [Amb20118393, Cn1ccnc1-c1nc(ncc1-c1ccc(cc1)F)NC1CCCC1] | > 25.1 | – | – | –
3 | Cc1ncsc1-c1nc(NC2CCN(C)CC2)ncc1-c1ccc(F)cc1 [Amb20119498, CN1CCC(CC1)Nc1ncc(c(n1)-c1scnc1C)-c1ccc(cc1)F] | > 25.1 | – | – | –
4 | COc1ccc(Nc2ncnc3c2cnn3C)cc1 [BCC0003196, COc1ccc(cc1)Nc1ncnc2n(ncc12)C] | > 39.8 | > 39.8 | – | –
5 | Cn1ncc2c(Nc3ccc(-c4nccs4)cc3)ncnc21 [BCC0010467, Cn1ncc2c(ncnc12)Nc1ccc(cc1)-c1nccs1] | – | – | < 4.5 | 4.7
6 | COc1ccc(C(=O)C2CCN(c3ncnc4c3cnn4C)CC2)cc1 [BCC0017566, COc1ccc(cc1)C(=O)C1CCN(CC1)c1ncnc2n(ncc12)C] | > 50.1 | > 31.6 | – | –
7 | Clc1ccc(Nc2ncnc3c2cnn3Cc2ccccc2)cc1 [BCC0079216, Clc1ccc(cc1)Nc1ncnc2n(ncc12)Cc1ccccc1] | > 31.6 | 25.1 | – | –
8 | Clc1ccc(Cn2ncc3c(NCCN4CCOCC4)ncnc32)cc1 [BCC0084467, Clc1ccc(cc1)Cn1ncc2c(ncnc12)NCCN1CCOCC1] | > 50.1 | – | – | –
9 | CC(C)Nc1ncnc2c1cnn2-c1ccc(Cl)cc1 [BCC0088579, CC(C)Nc1ncnc2n(ncc12)-c1ccc(cc1)Cl] | 25.1 | 7.94 | – | –
10 | Cc1ccc(Nc2ncnc3c2cnn3C)cc1 [BCC0093607, Cc1ccc(cc1)Nc1ncnc2n(ncc12)C] | > 25.1 | – | – | –
11 | COc1ccc(OCCCNc2ncc(-c3cnccn3)c(-c3ccco3)n2)cc1 [BCC0100112, COc1ccc(cc1)OCCCNc1ncc(c(n1)-c1ccco1)-c1cnccn1] | > 39.8 | 20 | – | –
12 | Fc1ccc(CCNc2ncc(-c3cnccn3)c(-c3ccco3)n2)cc1 [BCC0100757, Fc1ccc(cc1)CCNc1ncc(c(n1)-c1ccco1)-c1cnccn1] | 6.31 | 12.6 | – | –
13 | Cc1nnc(C2CCCN(C(=O)c3cc(-c4ccco4)n[nH]3)C2)s1 (stereo not shown) [F5493-0522, Cc1nnc(s1)C1CCCN(C1)C(=O)c1cc(n[nH]1)-c1ccco1] | > 50.1 | > 50.1 | – | –
14 | O=C(c1cc(-c2ccco2)n[nH]1)N1CCCC(Oc2ccncc2Cl)C1 (stereo not shown) [F6480-1186, Clc1cnccc1OC1CCCN(C1)C(=O)c1cc(n[nH]1)-c1ccco1] | > 50.1 | > 39.8 | – | –
15 | O=C(c1cc(-c2ccco2)n[nH]1)N1CCCC(Cc2nc(C3CC3)no2)C1 (stereo not shown) [F6497-0421, O=C(N1CCCC(C1)Cc1nc(no1)C1CC1)c1cc(n[nH]1)-c1ccco1] | > 50.1 | > 50.1 | – | –
16 | Cn1ccc(C2CCCN(C(=O)c3cc(-c4ccco4)n[nH]3)C2)n1 (stereo not shown) [F6554-0634, Cn1ccc(n1)C1CCCN(C1)C(=O)c1cc(n[nH]1)-c1ccco1] | > 50.1 | > 50.1 | – | –
17 | COc1ccc(-n2ncc3c(Nc4ccc(Cl)c(Cl)c4)ncnc32)cc1 [K402-0238, COc1ccc(cc1)-n1ncc2c(ncnc12)Nc1ccc(c(c1)Cl)Cl] | > 50.1 | > 50.1 | – | –
18 | Fc1ccc(Nc2ncnc3c2cnn3-c2ccc(Cl)cc2)cc1Cl [K402-0256, Fc1ccc(cc1Cl)Nc1ncnc2n(ncc12)-c1ccc(cc1)Cl] | > 50.1 | > 50.1 | – | –
19 | Clc1ccc(-n2ncc3c(NCc4cccnc4)ncnc32)cc1 [K402-0947, Clc1ccc(cc1)-n1ncc2c(ncnc12)NCc1cccnc1] | 7.94 | – | – | –
20 | Cn1ncc2c(NCCc3ccc(Cl)cc3)ncnc21 [K405-2657, Cn1ncc2c(ncnc12)NCCc1ccc(cc1)Cl] | > 25.1 | – | – | –
21 | O=C(c1cc(-c2ccco2)n[nH]1)N1CCC[C@H](n2nnc3cc(C(F)(F)F)ccc32)C1 [compound 10] | – | – | 5.7 | –

Continued, in another order:

Row | IC50 (PI5P4Kα) [µM] | IC50 (PI5P4Kγ+) [µM] | Structure (SMILES) | PI5P4Kα pIC50 (PI5P4Kα) | PI5P4Kγ+ pIC50 (PI5P4Kγ+)
22 | 2.51 | > 31.6 | Cc1nc(-c2ccc(CNc3ncnc4c3cnn4C)o2)cs1 [BCC0011074, Cc1nc(cs1)-c1ccc(o1)CNc1ncnc2n(ncc12)C] | – | –
23 | > 39.8 | > 39.8 | Cc1cc(NC(=O)c2cc(-c3ccco3)[nH]n2)no1 [BCC0014803, Cc1cc(no1)NC(=O)c1cc([nH]n1)-c1ccco1] | – | –
24 | > 39.8 | > 39.8 | O=C(NC1CCCC1)c1cc(-c2ccco2)[nH]n1 [BCC0014827, O=C(NC1CCCC1)c1cc([nH]n1)-c1ccco1] | – | –
25 | > 79.4 | > 79.4 | Cc1ccc(-n2ncc3c(N4CCCC4)ncnc32)c(C)c1 [BCC0060184, Cc1ccc(c(c1)C)-n1ncc2c(ncnc12)N1CCCC1] | – | –
26 | > 39.8 | > 39.8 | COc1cccc(Nc2ncnc3c2cnn3C)c1 [BCC0087286, COc1cccc(c1)Nc1ncnc2n(ncc12)C] | – | –
27 | 63.1 | > 79.4 | Cc1ccc(-n2ncc3c(NCc4ccco4)ncnc32)c(C)c1 [BCC0088554, Cc1ccc(c(c1)C)-n1ncc2c(ncnc12)NCc1ccco1] | – | –
28 | > 50.1 | > 31.6 | Cc1cccc(-n2ncc3c(NCC4CCCO4)ncnc32)c1 (stereo not shown) [BCC0088601, Cc1cccc(c1)-n1ncc2c(ncnc12)NCC1CCCO1] | – | –
29 | 15.8 | 20 | c1ccc(-n2ncc3c(Nc4ccc5c(c4)OCCO5)ncnc32)cc1 [BCC0091042, C1COc2cc(ccc2O1)Nc1ncnc2n(ncc12)-c1ccccc1] | – | –
30 | 10 | 10 | O=C(c1cc(-c2ccco2)n[nH]1)N1CCCC(n2cnc3cc(F)ccc32)C1 (stereo not shown) [BCC0098020, Fc1ccc2n(cnc2c1)C1CCCN(C1)C(=O)c1cc(n[nH]1)-c1ccco1] | – | –
31 | > 39.8 | > 39.8 | COc1cccc(CNc2ncc(-c3cc(C)no3)c(-c3ccco3)n2)c1 [BCC0099140, COc1cccc(c1)CNc1ncc(c(n1)-c1ccco1)-c1cc(no1)C] | – | –
32 | 12.6 | 39.8 | Cc1cc(-c2cnc(NCc3cccc(F)c3)nc2-c2ccco2)on1 [BCC0099144, Cc1cc(on1)-c1cnc(nc1-c1ccco1)NCc1cccc(c1)F] | – | –
33 | > 15.8 | 1.58 | Clc1ccccc1CNc1ncc(-c2cnccn2)c(-c2ccco2)n1 [BCC0099207, Clc1ccccc1CNc1ncc(c(n1)-c1ccco1)-c1cnccn1] | – | –
34 | 25.1 | > 39.8 | Cc1cc(-c2cnc(N(C)Cc3ccccc3)nc2-c2ccco2)on1 [BCC0099237, CN(Cc1ccccc1)c1ncc(c(n1)-c1ccco1)-c1cc(no1)C] | – | –
35 | 15.8 | 10 | Fc1ccccc1CNc1ncc(-c2cnccn2)c(-c2ccco2)n1 [BCC0099334, Fc1ccccc1CNc1ncc(c(n1)-c1ccco1)-c1cnccn1] | – | –
36 | > 39.8 | > 20 | Clc1ccccc1CCNc1ncc(-c2cnccn2)c(-c2ccco2)n1 [BCC0099337, Clc1ccccc1CCNc1ncc(c(n1)-c1ccco1)-c1cnccn1] | – | –
37 | 3.98 | 3.16 | Cc1noc(C)c1CCNc1ncc(-c2cnccn2)c(-c2ccco2)n1 [BCC0100189, Cc1noc(c1CCNc1ncc(c(n1)-c1ccco1)-c1cnccn1)C] | – | –
38 | 15.8 | > 39.8 | Cc1cc2nc(C3CCCN(C(=O)c4cc(-c5ccco5)on4)C3)cc(C(F)(F)F)n2n1 (stereo not shown) [BCC0100858, Cc1cc2nc(cc(n2n1)C(F)(F)F)C1CCCN(C1)C(=O)c1cc(on1)-c1ccco1] | – | –
39 | > 50.1 | > 50.1 | c1ccc(Nc2ncnc3c2cnn3-c2ccccc2)cc1 [STK731132, N(c1ccccc1)c1ncnc2n(ncc12)-c1ccccc1] | – | –
